This assay deals with VEGF stimulated Phospho-ERK in HUVEC. Description: Growth factor stimulated p-ERK assay in HUVECs (VEGF stimulation, ERK1/2 Bioplex). In kind it is cell-based. To be noted: Homo sapiens, compound 2 hrs, then 50 ng/ml VEGF 10 min; for inhibition at 0.1 µM: @ 100 nM. On the procedure:
Growth Factor Stimulated p-ERK assay in HUVECs
Exponentially growing human endothelial HUVECs cells (human umbilical vein endothelial cells, cat# CC-2517, Cambrex, Walkersville, Md.) were seeded at twenty five thousand cells/well in 96 well plates in EBM-2 MV medium with growth factors (cat# CC-3202, Cambrex) and grown at 37° C. in 5% CO2. Sixteen hours post-plating, the cells were changed to serum-free medium (RPMI 1640 containing 0.1% BSA (bovine serum albumin) and compounds were added at different concentrations for 2 hrs, after which the cells were stimulated for 10 min with 50 ng/ml of either VEGF (vascular endothelial growth factor, Protein Sciences, Meriden, Conn.) or bFGF (basic fibroblast growth factor cat# PHG0026, Biosource International, Camarillo, Calif.). The rest of the assay was performed per manufacturer indications for the ERK½ Bioplex assay (cat#171-304004, Bio-Rad, Hercules, Calif.). After removing culture medium by aspiration, the cells were quickly rinsed with 100 μl of cell wash buffer A to stop treatment reaction. Eighty microliters of cell lysis buffer were then immediately added to each well of the 96 well plate which was put on ice. Cells in each well were lysed by pipetting up and down 5 times with a multi-channel pipet. The plate was then agitated on a microtiter plate shaker at 300 rpm for 20 min at 4° C. Cellular debris were pelleted by centrifugation at 4500 g for 15 min at 4° C. and the supernatant was collected. Forty five microliters of supernatant was diluted with an equal volume of Bio-Plex phosphoprotein assay Buffer B, The coupled and color coated beads were added into a 96 well filter plate, and the prepared lysates were added. The beads and lysate mixture was incubated at room temperature for 15-18 hrs. The following day, the plate was vacuum-filtered and then washed 3×. Twenty-five microliters of detection antibody solution were added to each well and the plate was then incubated for 30 min at room temperature. The plate was then vaccum-filtered and washed as described previously. Fifty microliters of streptavidin-PE solution was added to each well, the plate was incubated for 10 min at room temperature and then was then vaccum-filtered and washed as described above. One hundred twenty-five microliters of resuspension buffer was added to each well and data were acquired on the Luminex 100 instrument (Bio-Rad).

The values that follow come from patent US7563791B2, “Pyrrolotriazine derivatives useful for treating hyper-proliferative disorders and diseases associated with angiogenesis” (Bayer Pharmaceuticals Corporation, priority 2004, dated 2009).

Structures are written as SMILES. Bounds are passed on as bounds.

Broadly, the inhibition is the share of the control response that was lost under treatment. Lower therefore signals a weak effect.

The compound `CCOC(=O)c1cn2ncnc(N)c2c1-c1ccc(NC(=O)Nc2cc(C(F)(F)F)ccc2F)cc1` [Example 1, ethyl 4-amino-5-{4-[({[2-fluoro-5-(trifluoromethyl)phenyl]amino}carbonyl)amino]phenyl}pyrrolo[2,1-f][1,2,4]triazine-6-carboxylate] gave an inhibition at 0.1 µM above 50%.

With `CCOC(=O)c1cn2ncnc(N)c2c1-c1ccc(NC(=O)Nc2ccccc2OC(F)(F)F)cc1` [Example 8, ethyl 4-amino-5-{4-[({[2-(trifluoromethoxy)phenyl]amino}carbonyl)amino]phenyl}pyrrolo[2,1-f][1,2,4]triazine-6-carboxylate], the inhibition at 0.1 µM is above 50%.

As to `CCOC(=O)c1cn2ncnc(N)c2c1-c1ccc(NC(=O)Nc2cccc(OC(F)(F)F)c2)cc1` [Example 9, ethyl 4-amino-5-{4-[({[3-(trifluoromethoxy)phenyl]amino}carbonyl)amino]phenyl}pyrrolo[2,1-f][1,2,4]triazine-6-carboxylate], the inhibition at 0.1 µM is above 50%.

In the case of `CCOC(=O)c1cn2ncnc(N)c2c1-c1ccc(NC(=O)Nc2ccc(OC(F)(F)F)cc2)cc1` [Example 11, ethyl 4-amino-5-{4-[({[4-(trifluoromethoxy)phenyl]amino}carbonyl)amino]phenyl}pyrrolo[2,1-f][1,2,4]triazine-6-carboxylate], the inhibition at 0.1 µM was below 50% and the inhibition at 1 µM is above 50%.

`CCOC(=O)c1cn2ncnc(N)c2c1-c1ccc(NC(=O)Nc2ccc3c(cnn3C)c2)cc1` [Example 12] displayed an inhibition at 0.1 µM above 50%.

`CCOC(=O)c1cn2ncnc(N)c2c1-c1ccc(NC(=O)Nc2ccc3c(c2)OC(F)(F)O3)cc1` [Example 14, ethyl 4-amino-5-[4-({[(2,2-difluoro-1,3-benzodioxol-5-yl)amino]carbonyl}amino)phenyl]pyrrolo[2,1-f][1,2,4]triazine-6-carboxylate] had an inhibition at 0.1 µM below 50%, an inhibition at 1 µM below 50% and an inhibition at 10 µM above 50%.

In turn, `CCOC(=O)c1cn2ncnc(N)c2c1-c1ccc(NC(=O)Nc2ccc(Cl)c(Cl)c2)cc1` [Example 18, ethyl 4-amino-S-[4-({[(3,4-dichlorophenyl)amino]carbonyl}amino)phenyl]pyrrolo[2,1-f][1,2,4]triazine-6-carboxylate] gave an inhibition at 0.1 µM below 50%, an inhibition at 1 µM below 50% and an inhibition at 10 µM above 50%.

Turning to `CCOC(=O)c1cn2ncnc(N)c2c1-c1ccc(NC(=O)Nc2ccc3c(c2)OC(F)(F)C(F)(F)O3)cc1` [Example 22, ethyl 4-amino-5-[4-({[(2,2,3,3-tetrafluoro-2,3-dihydro-1,4-benzodioxin-6-yl)amino]carbonyl}amino)phenyl]pyrrolo[2,1-f][1,2,4]triazine-6-carboxylate], the inhibition at 0.1 µM is below 50% and the inhibition at 1 µM was above 50%.

`CCOC(=O)c1cn2ncnc(N)c2c1-c1ccc(NC(=O)Nc2ccccc2)cc1` [Example 23, ethyl 4-amino-5-{4-[(anilinocarbonyl)amino]phenyl}pyrrolo[2,1-f][1,2,4]triazine-6-carboxylate] registered an inhibition at 0.1 µM above 50%.

Take `CCOC(=O)c1cn2ncnc(N)c2c1-c1ccc(NC(=O)Nc2ccccc2C(C)C)cc1` [Example 24, ethyl 4-amino-5-[4-({[(2-isopropylphenyl)amino]carbonyl}amino)phenyl]pyrrolo[2,1-f][1,2,4]triazine-6-carboxylate]: the inhibition at 0.1 µM is below 50% and the inhibition at 1 µM was above 50%.

As to `CCOC(=O)c1cn2ncnc(N)c2c1-c1ccc(NC(=O)Nc2cc(C(F)(F)F)cc(C(F)(F)F)c2)cc1` [Example 26, ethyl 4-amino-5-{4-[({[3,5-bis(trifluoromethyl)phenyl]amino}carbonyl)amino]phenyl}pyrrolo[2,1-f][1,2,4]triazine-6-carboxylate], the inhibition at 0.1 µM is below 50% and the inhibition at 1 µM is above 50%.

`CCOC(=O)c1cn2ncnc(N)c2c1-c1ccc(NC(=O)Nc2cc(C(F)(F)F)ccc2N2CCOCC2)cc1` [Example 27, ethyl 4-amino-5-{4-[({[2-morpholin-4-yl-5-(trifluoromethyl)phenyl]amino}carbonyl)amino]phenyl}pyrrolo[2,1-f][1,2,4]triazine-6-carboxylate] returned an inhibition at 0.1 µM above 50%.

The compound `CCOC(=O)c1cn2ncnc(N)c2c1-c1ccc(NC(=O)Nc2cc(OC)ncn2)cc1` [Example 29, ethyl 4-amino-5-[4-({[(6-methoxypyrimidin-4-yl)amino]carbonyl}amino)phenyl]pyrrolo[2,1-f][1,2,4]triazine-6-carboxylate] returned an inhibition at 0.1 µM below 50% and an inhibition at 1 µM above 50%.

In turn, `COCCNCc1cn2ncnc(N)c2c1-c1ccc(NC(=O)Nc2cc(C(F)(F)F)ccc2F)cc1` [Example 32, N-[4-(4-amino-6-{[(2-methoxyethyl)amino]methyl}pyrrolo[2,1-f][1,2,4]triazin-5-yl)phenyl]-N′-[2-fluoro-5-(trifluoromethyl)phenyl]urea] registered an inhibition at 0.1 µM above 50%.

With `CN(C)CCNCc1cn2ncnc(N)c2c1-c1ccc(NC(=O)Nc2cc(C(F)(F)F)ccc2F)cc1` [Example 37, N-{4-[4-amino-6-({[2-(dimethylamino)ethyl]amino}methyl)pyrrolo[2,1-f][1,2,4]triazin-5-yl]phenyl}-N′-[2-fluoro-5-(trifluoromethyl)phenyl]urea], the inhibition at 0.1 µM is below 50% and the inhibition at 1 µM was above 50%.

The compound `Nc1ncnn2cc(CNCCC(F)(F)F)c(-c3ccc(NC(=O)Nc4cc(C(F)(F)F)ccc4F)cc3)c12` [Example 39, N-[4-(4-amino-6-{[(3,3,3-trifluoropropyl)amino]methyl}pyrrolo[2,1-f][1,2,4]triazin-5-yl)phenyl]-N′-[2-fluoro-5-(trifluoromethyl)phenyl]urea] showed an inhibition at 0.1 µM below 50% and an inhibition at 1 µM above 50%.

In the case of `COCCN1CCN(Cc2cn3ncnc(N)c3c2-c2ccc(NC(=O)Nc3cc(C(F)(F)F)ccc3F)cc2)CC1` [Example 41, N-[4-(4-amino-6-{[4-(2-methoxyethyl)piperazin-1-yl]methyl}pyrrolo[2,1-f][1,2,4]triazin-5-yl)phenyl]-N′-[2-fluoro-5-(trifluoromethyl)phenyl]urea], the inhibition at 0.1 µM is below 50% and the inhibition at 1 µM is above 50%.

In turn, `Nc1ncnn2cc(CNc3cccnc3)c(-c3ccc(NC(=O)Nc4cc(C(F)(F)F)ccc4F)cc3)c12` [Example 47, N-(4-{4-amino-6-[(pyridin-3-ylamino)methyl]pyrrolo[2,1-f][1,2,4]triazin-5-yl}phenyl)-N′-[2-fluoro-5-(trifluoromethyl)phenyl]urea] returned an inhibition at 0.1 µM below 50% and an inhibition at 1 µM above 50%.

In turn, `CCOC(=O)c1cn2ncnc(N)c2c1-c1ccc(NC(=O)Nc2cc(C(C)(C)C)nn2C)cc1` [Example 49, ethyl 4-amino-5-[4-({[(3-tert-butyl-1-methyl-1H-pyrazol-5-yl)amino]carbonyl}amino)phenyl]pyrrolo[2,1-f][1,2,4]triazine-6-carboxylate] had an inhibition at 0.1 µM above 50%.

`Nc1ncnn2cc(C(=O)NCCCN3CCCC3)c(-c3ccc(NC(=O)Nc4cc(C(F)(F)F)ccc4F)cc3)c12` [Example 62, 4-amino-5-{4-[({[2-fluoro-5-(trifluoromethyl)phenyl]amino}carbonyl)amino]phenyl}-N-(3-pyrrolidin-1-ylpropyl)pyrrolo[2,1-f][1,2,4]triazine-6-carboxamide] registered an inhibition at 0.1 µM below 50%, an inhibition at 1 µM below 50% and an inhibition at 10 µM above 50%.

`Nc1ncnn2cc(CCCN3CCOCC3)c(-c3ccc(NC(=O)Nc4cc(C(F)(F)F)ccc4F)cc3)c12` [Example 66, N-{4-[4-amino-6-(3-morpholin-4-ylpropyl)pyrrolo[2,1-f][1,2,4]triazin-5-yl]phenyl}-N′-[2-fluoro-5-(trifluoromethyl)phenyl]urea] yielded an inhibition at 0.1 µM below 50% and an inhibition at 1 µM above 50%.

The compound `CC(C)(C)NC(=O)c1cn2ncnc(N)c2c1-c1ccc(NC(=O)Nc2cc(C(F)(F)F)ccc2F)cc1` [Example 75, 4-amino-N-(tert-butyl)-5-{4-[({[2-fluoro-5-(trifluoromethyl)phenyl]amino}carbonyl)amino]phenyl}pyrrolo[2,1-f][1,2,4]triazine-6-carboxamide] had an inhibition at 0.1 µM below 50% and an inhibition at 1 µM above 50%.

For `Cc1cn2ncnc(N)c2c1-c1ccc(NC(=O)Nc2cc(C(F)(F)F)ccc2F)cc1` [Example 85, N-[4-(4-amino-6-methylpyrrolo[2,1-f][1,2,4]triazin-5-yl)phenyl]-N′-[2-fluoro-5-(trifluoromethyl)phenyl]urea], the inhibition at 0.1 µM is below 50% and the inhibition at 1 µM is above 50%.
